The record followed here is patent US20060223811A1, “Triglycerine depressant composition” (priority 2000, published 2006).

The assay has as its system blood triglyceride levels. Put plainly: Assay of blood triglyceride levels in dogs after 11 days of oral capsule administration (GK-GPO-POD method). As to conditions: serum, relative ratio against averaged pre-dosing level (100), oral capsule once daily, mean of 5 dogs.
Where [1] appears, read: Table 9, pravastatin 2 mg/kg, pantethine 300 mg/kg.
Where [2] appears, read: Table 11, pravastatin 2, riboflavin butyrate 6, d-α-tocopherol acetate 150, ascorbic acid 500 mg/kg.
Where [3] appears, read: Table 12, pravastatin 2, d-α-tocopherol acetate 10, ascorbic acid 50 mg/kg.

Description: Beagle dogs aged 5 months were purchased from Covance Research Products Inc. and used after 1 month of quarantine and acclimatisation breeding.
(3) Preparation Forms for Administration, Methods of Preparing the Formulation, and Method of Stocking the Formulation
The calculated amounts of pravastatin or each component of the compositions based on the body weight of each dog were weighed and filled in a gelatin capsule (½ ounce) purchased from TORPAC Inc. Capsules filled with pravastatin were stocked in a refrigerator and, those filled with combination drugs stocked at room temperature until use.
The combination drugs were filled in identical gelatin capsules.
(4) Route of Administration and Administration Period
Pravastatin or combination drug capsules were forcibly orally administered to each of the test animals once daily between 9:00 and 12:30. Animals were fasted for 2 or 3 hr prior to administration of the capsules.
The administration period was 11 successive days.
(5) Preparation of Test Samples and Procedures
Blood (10 mL) was collected from the superficial radial vein 14 and 7 days prior to capsule administration (2 and 1 weeks prior to administration) and 4, 8, and 12 days after administration of the capsule. Animals were fasted for approximately 18 hr prior to blood collection. Collected blood was placed in a test tube, left at room temperature for 0.5-1 hr, before being centrifuged (3,000 rpm for 10 min). The obtained serum was used for assays of blood triglyceride levels according to GK-GPO-POD methods.
A full automatic analyzer (Monarch, Instrumentation Laboratory, Inc.) was used for assay of triglycerides.
The averaged value in each group was obtained from 5 animals per group.

In the case of `CC[C@H](C)C(=O)O[C@H]1C[C@H](O)C=C2C=C[C@H](C)[C@H](CC[C@@H](O)C[C@@H](O)CC(=O)O)[C@H]21` [Pravastatin alone, (+)−(3R, 5R)-3,5-dihydroxy-7-[(1S, 2S,6S,8S,8aR)-6-hydroxy-2-methyl-8-[(S)-2-methylbutyryloxy]-1,2,6,7,8,8a-hexahydro-1-naphthyl]heptanoic acid], the “Blood Triglyceride Levels after administration, 4 days” value runs as follows: under setting [1], 108.9; under setting [2], 108.9; under setting [3], 108.9. The “Blood Triglyceride Levels after administration, 8 days” value was found to be 104.0 under setting [1], 104.0 under setting [2] and 104.0 under setting [3]. Further, the “Blood Triglyceride Levels after administration, 12 days” value was 91.1 under setting [1], 91.1 under setting [2] and 91.1 under setting [3].
